Measurements from patent publication US10681909B2, “Herbicidal triazoles” (FMC Corporation, priority 2014, dated 2020).

Tests used:
[1] = tested on: barnyardgrass; experiment: Test A preemergence; format: in vivo, Echinochloa crus-galli; conditions: 0 to 100 scale (0 no effect, 100 complete control)
From the text: (§1) Seeds of plant species selected from barnyardgrass (Echinochloa crus-galli), crabgrass, large (large crabgrass, Digitaria sanguinalis), kochia (Kochia scoparia), ragweed (common ragweed, Ambrosia elatior), foxtail, giant (giant foxtail, Setaria faberii), morningglory (Ipomoea spp.), pigweed (Amaranthus retroflexus), velvetleaf (Abutilon theophrasti), ryegrass, Italian (Italian ryegrass, Lolium multiflorum), wheat (Triticum aestivum), and corn (Zea mays) were planted into a blend of loam soil and sand and treated preemergence with a directed soil spray using test chemicals formulated in a non-phytotoxic solvent mixture which included a surfactant. At the same time, plants selected from these crop and weed species and also blackgrass (Alopecurus myosuroides), and galium (catchweed bedstraw, Galium aparine), were planted in pots containing the same blend of loam soil and sand and treated with postemergence applications of test chemicals formulated in the same manner. Plants ranged in height from 2 to 10 cm and were in the one- to two-leaf stage for the postemergence treatment. […] A dash (-) response means no test result.

[2] = tested on: kochia; experiment: Test A preemergence; format: in vivo, Kochia scoparia; conditions: 0 to 100 scale (0 no effect, 100 complete control)
From the text: (§2) Seeds of plant species selected from barnyardgrass (Echinochloa crus-galli), crabgrass, large (large crabgrass, Digitaria sanguinalis), kochia (Kochia scoparia), ragweed (common ragweed, Ambrosia elatior), foxtail, giant (giant foxtail, Setaria faberii), morningglory (Ipomoea spp.), pigweed (Amaranthus retroflexus), velvetleaf (Abutilon theophrasti), ryegrass, Italian (Italian ryegrass, Lolium multiflorum), wheat (Triticum aestivum), and corn (Zea mays) were planted into a blend of loam soil and sand and treated preemergence with a directed soil spray using test chemicals formulated in a non-phytotoxic solvent mixture which included a surfactant.
(§3) At the same time, plants selected from these crop and weed species and also blackgrass (Alopecurus myosuroides), and galium (catchweed bedstraw, Galium aparine), were planted in pots containing the same blend of loam soil and sand and treated with postemergence applications of test chemicals formulated in the same manner. Plants ranged in height from 2 to 10 cm and were in the one- to two-leaf stage for the postemergence treatment. Treated plants and untreated controls were maintained in a greenhouse for approximately 10 d, after which time all treated plants were compared to untreated controls and visually evaluated for injury. Plant response ratings, summarized in Table A, are based on a 0 to 100 scale where 0 is no effect and 100 is complete control. A dash (-) response means no test result.

[3] = tested on: ragweed; experiment: Test A preemergence; format: in vivo, Ambrosia elatior; conditions: 0 to 100 scale (0 no effect, 100 complete control)
From the text: as §2, §3

[4] = tested on: foxtail, giant; experiment: Test A preemergence; format: in vivo, Setaria faberii; conditions: 0 to 100 scale (0 no effect, 100 complete control)
From the text: as §1

[5] = tested on: pigweed; experiment: Test A preemergence; format: in vivo, Amaranthus retroflexus; conditions: 0 to 100 scale (0 no effect, 100 complete control)
From the text: as §1

[6] = tested on: ryegrass, Italian; experiment: Test A preemergence; format: in vivo, Lolium multiflorum; conditions: 0 to 100 scale (0 no effect, 100 complete control)
From the text: as §2, §3

[7] = tested on: barnyardgrass; experiment: Test A postemergence; format: in vivo, Echinochloa crus-galli; conditions: 0 to 100 scale (0 no effect, 100 complete control), approx. 10 d
From the text: as §1

[8] = tested on: kochia; experiment: Test A postemergence; format: in vivo, Kochia scoparia; conditions: 0 to 100 scale (0 no effect, 100 complete control), approx. 10 d
From the text: as §2, §3

[9] = tested on: ragweed; experiment: Test A postemergence; format: in vivo, Ambrosia elatior; conditions: 0 to 100 scale (0 no effect, 100 complete control), approx. 10 d
From the text: as §2, §3

[10] = tested on: foxtail, giant; experiment: Test A postemergence; format: in vivo, Setaria faberii; conditions: 0 to 100 scale (0 no effect, 100 complete control), approx. 10 d
From the text: as §1

[11] = tested on: pigweed; experiment: Test A postemergence; format: in vivo, Amaranthus retroflexus; conditions: 0 to 100 scale (0 no effect, 100 complete control), approx. 10 d
From the text: as §1

[12] = tested on: ryegrass, Italian; experiment: Test A postemergence; format: in vivo, Lolium multiflorum; conditions: 0 to 100 scale (0 no effect, 100 complete control), approx. 10 d
From the text: as §2, §3

[13] = tested on: wheat; experiment: Test A postemergence; format: in vivo, Triticum aestivum; conditions: 0 to 100 scale (0 no effect, 100 complete control), approx. 10 d
From the text: as §1

[14] = tested on: corn; experiment: Test A postemergence; format: in vivo, Zea mays; conditions: 0 to 100 scale (0 no effect, 100 complete control), approx. 10 d
From the text: as §1

[15] = tested on: blackgrass; experiment: Test A postemergence; format: in vivo, Alopecurus myosuroides; conditions: 0 to 100 scale (0 no effect, 100 complete control), approx. 10 d
From the text: as §2, §3

[16] = tested on: galium; experiment: Test A postemergence; format: in vivo, Galium aparine; conditions: 0 to 100 scale (0 no effect, 100 complete control), approx. 10 d
From the text: as §2, §3

SMILES | Plant response rating, Barnyardgrass ([1]; 31 g ai/ha) | Plant response rating, Barnyardgrass ([1]; 125 g ai/ha) | Plant response rating, Kochia ([2]; 31 g ai/ha) | Plant response rating, Kochia ([2]; 125 g ai/ha) | Plant response rating, Ragweed ([3]; 31 g ai/ha) | Plant response rating, Ragweed ([3]; 125 g ai/ha) | Plant response rating, Foxtail, Giant ([4]; 31 g ai/ha) | Plant response rating, Foxtail, Giant ([4]; 125 g ai/ha) | Plant response rating, Pigweed ([5]; 31 g ai/ha) | Plant response rating, Pigweed ([5]; 125 g ai/ha) | Plant response rating, Ryegrass, Italian ([6]; 31 g ai/ha) | Plant response rating, Ryegrass, Italian ([6]; 125 g ai/ha) | Plant response rating, Barnyardgrass ([7]; 31 g ai/ha) | Plant response rating, Barnyardgrass ([7]; 125 g ai/ha) | Plant response rating, Kochia ([8]; 31 g ai/ha) | Plant response rating, Kochia ([8]; 125 g ai/ha) | Plant response rating, Ragweed ([9]; 31 g ai/ha) | Plant response rating, Ragweed ([9]; 125 g ai/ha) | Plant response rating, Foxtail, Giant ([10]; 31 g ai/ha) | Plant response rating, Foxtail, Giant ([10]; 125 g ai/ha) | other results
Cc1nc(-c2ccc(F)cc2)nn1Cc1ccnc(C(F)(F)F)c1 [Compound 38] | 0 | 80 | 30 | 100 | 0 | 20 | 20 | 100 | 90 | 100 | 0 | 10 | 0 | 20 | 70 | 90 | 0 | 30 | 20 | 80 | Plant response rating, Pigweed ([11]; 31 g ai/ha): 80; Plant response rating, Pigweed ([11]; 125 g ai/ha): 90; Plant response rating, Ryegrass, Italian ([12]; 31 g ai/ha): 0; Plant response rating, Ryegrass, Italian ([12]; 125 g ai/ha): 0; Plant response rating, Wheat ([13]; 31 g ai/ha): 0; Plant response rating, Wheat ([13]; 125 g ai/ha): 10; Plant response rating, Corn ([14]; 31 g ai/ha): 10; Plant response rating, Corn ([14]; 125 g ai/ha): 30; Plant response rating, Blackgrass ([15]; 31 g ai/ha): 10; Plant response rating, Blackgrass ([15]; 125 g ai/ha): 40; Plant response rating, Galium ([16]; 31 g ai/ha): 30; Plant response rating, Galium ([16]; 125 g ai/ha): 90
Cc1nc(-c2ccc(Br)cc2)nn1Cc1ccnc(C(F)(F)F)c1 [Compound 36] | 0 | 60 | 60 | 90 | 0 | 20 | 20 | 90 | 90 | 90 | 0 | 10 | 0 | 20 | 70 | 90 | 0 | 30 | 20 | 70 | Plant response rating, Pigweed ([11]; 31 g ai/ha): 90; Plant response rating, Pigweed ([11]; 125 g ai/ha): 100; Plant response rating, Ryegrass, Italian ([12]; 31 g ai/ha): 0; Plant response rating, Ryegrass, Italian ([12]; 125 g ai/ha): 0; Plant response rating, Wheat ([13]; 31 g ai/ha): 0; Plant response rating, Wheat ([13]; 125 g ai/ha): 10; Plant response rating, Corn ([14]; 31 g ai/ha): 20; Plant response rating, Corn ([14]; 125 g ai/ha): 30; Plant response rating, Blackgrass ([15]; 31 g ai/ha): 10; Plant response rating, Blackgrass ([15]; 125 g ai/ha): 30; Plant response rating, Galium ([16]; 31 g ai/ha): 50; Plant response rating, Galium ([16]; 125 g ai/ha): 90
COc1nc(-c2ccc(OC(F)(F)F)cc2)nn1Cc1ccnc(C(F)(F)F)c1 [Compound 40] | 0 | 0 | 0 | 0 | 0 | 0 | 0 | 0 | 0 | 30 | 0 | 0 | 0 | 0 | 0 | 0 | 0 | 0 | 0 | 0 | Plant response rating, Pigweed ([11]; 31 g ai/ha): 30; Plant response rating, Pigweed ([11]; 125 g ai/ha): 70; Plant response rating, Ryegrass, Italian ([12]; 31 g ai/ha): 0; Plant response rating, Ryegrass, Italian ([12]; 125 g ai/ha): 0; Plant response rating, Wheat ([13]; 31 g ai/ha): 0; Plant response rating, Wheat ([13]; 125 g ai/ha): 0; Plant response rating, Corn ([14]; 31 g ai/ha): 0; Plant response rating, Corn ([14]; 125 g ai/ha): 20; Plant response rating, Blackgrass ([15]; 31 g ai/ha): 0; Plant response rating, Blackgrass ([15]; 125 g ai/ha): 0; Plant response rating, Galium ([16]; 31 g ai/ha): 20; Plant response rating, Galium ([16]; 125 g ai/ha): 30
CCc1nc(-c2ccncc2)nn1Cc1ccnc(C(F)(F)F)c1 [Compound 39] | 0 | 0 | 0 | 0 | 0 | 0 | 0 | 30 | 30 | 90 | 0 | 0 | 0 | 10 | 50 | 70 | 20 | 30 | 10 | 20 | Plant response rating, Pigweed ([11]; 31 g ai/ha): 60; Plant response rating, Pigweed ([11]; 125 g ai/ha): 70; Plant response rating, Ryegrass, Italian ([12]; 31 g ai/ha): 0; Plant response rating, Ryegrass, Italian ([12]; 125 g ai/ha): 0; Plant response rating, Wheat ([13]; 31 g ai/ha): 0; Plant response rating, Wheat ([13]; 125 g ai/ha): 0; Plant response rating, Corn ([14]; 31 g ai/ha): 0; Plant response rating, Corn ([14]; 125 g ai/ha): 20; Plant response rating, Blackgrass ([15]; 31 g ai/ha): 0; Plant response rating, Blackgrass ([15]; 125 g ai/ha): 0; Plant response rating, Galium ([16]; 31 g ai/ha): 40; Plant response rating, Galium ([16]; 125 g ai/ha): 60
FC(F)(F)COc1nc(-c2ccc(C(F)(F)F)cc2)nn1Cc1ccnc(C(F)(F)F)c1 [Compound 34] | 30 | 100 | 20 | 90 | 0 | 30 | 100 | 100 | 100 | 100 | 0 | 90 | 20 | 70 | 70 | 90 | 20 | 50 | 20 | 90 | Plant response rating, Pigweed ([11]; 31 g ai/ha): 100; Plant response rating, Pigweed ([11]; 125 g ai/ha): 100; Plant response rating, Ryegrass, Italian ([12]; 31 g ai/ha): 0; Plant response rating, Ryegrass, Italian ([12]; 125 g ai/ha): 20; Plant response rating, Wheat ([13]; 31 g ai/ha): 30; Plant response rating, Wheat ([13]; 125 g ai/ha): 50; Plant response rating, Corn ([14]; 31 g ai/ha): 20; Plant response rating, Corn ([14]; 125 g ai/ha): 20; Plant response rating, Blackgrass ([15]; 31 g ai/ha): 20; Plant response rating, Blackgrass ([15]; 125 g ai/ha): 50; Plant response rating, Galium ([16]; 31 g ai/ha): 30; Plant response rating, Galium ([16]; 125 g ai/ha): 90
